In paper PMC6909574, “The in vivo impact of MsLAC1, a Miscanthus laccase isoform, on lignification and lignin composition contrasts with its in vitro substrate preference” (BMC Plant Biology, 2019):

Target: T1, MsLAC1 (Miscanthus sinensis, UniProt A0A5B8YT74)
T1 construct: recombinant, secreted from Pichia pastoris X33 (pPICZalphaA, alpha-factor, MYC and HIS tags)
T1 sequence (A0A5B8YT74 32-583): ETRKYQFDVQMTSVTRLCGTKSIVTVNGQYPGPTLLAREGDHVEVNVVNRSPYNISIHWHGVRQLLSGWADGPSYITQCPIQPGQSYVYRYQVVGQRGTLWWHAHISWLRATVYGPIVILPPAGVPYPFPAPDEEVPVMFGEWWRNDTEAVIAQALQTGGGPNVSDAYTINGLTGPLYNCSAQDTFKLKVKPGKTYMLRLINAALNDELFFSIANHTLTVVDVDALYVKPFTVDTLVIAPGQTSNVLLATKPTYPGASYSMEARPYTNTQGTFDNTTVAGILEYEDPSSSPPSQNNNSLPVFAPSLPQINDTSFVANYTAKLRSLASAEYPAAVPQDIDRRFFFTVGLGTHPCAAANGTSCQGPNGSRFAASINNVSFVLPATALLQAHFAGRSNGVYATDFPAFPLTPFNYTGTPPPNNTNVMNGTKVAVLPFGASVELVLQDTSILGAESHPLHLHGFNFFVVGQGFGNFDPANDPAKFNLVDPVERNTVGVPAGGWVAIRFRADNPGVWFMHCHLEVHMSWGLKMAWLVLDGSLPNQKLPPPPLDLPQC
Assay: UV-Vis spectra over time ([…]-650 nm)
Type: biochemical
Conditions: 0.5 mM substrate, 0.02 U enzyme, 50 mM sodium acetate pH 5.0, 30 °C

COc1cc(/C=C/CO)ccc1O [coniferyl alcohol]
UV-Vis spectra over time (250-650 nm): recombinant MsLAC1 enzyme was able to oxidize all supplemented monolignols
